This is an account of results in patent publication US20250288591A1, “TRIMEPRAZINE FOR USE IN TREATING TRIGEMINAL NEURALGIA AND FOR REDUCING PAIN RELATED THERETO” (UNDAUNTED BIO, INC., priority 2022, published 2025).

The nature of data set [1]: Case report: patient with classic trigeminal neuralgia treated with trimeprazine. In kind it is in vivo, human. An excerpt: A middle-aged patient suffers from classic trigeminal neuralgia presenting with sharp, lancinating, severe pain in their left face precipitated by showering, eating, facial animation, touch of their facial skin and nose, and brushing their teeth. The episodes of pain are initiated by the stimuli above and immediately stop all other activity until they subside in several seconds. Their behavior is modified to avoid the stimuli above, even affecting how they speak and eats. […] Their daily activities are dominated by fear of inducing another attack. […] They had no remedy for these terrible pains before treatment with trimeprazine. The patient began treatment with trimeprazine 5 mg morning and evening. The second day of the course the intensity and frequency of the attacks were in decline. […] Since then, they have noted some discomfort in their face but not the sharp, almost unbearable pain of before. […] On most days they take no medication now. […] They note that this is a common side-effect for them to experience if a medication has any potential for causing drowsiness.

Data set [2] is described as follows: Observed effect of trimeprazine on pain of post-herpetic neuralgia and trigeminal neuralgia. Conditions: in vivo. An excerpt:
Post-herpetic pain involves the dorsal root ganglion (DRG), and trigeminal neuralgia involves the trigeminal ganglion (TG). Both the DRG and the TG are involved in the perception of itch and pain. Chronic neuropathic pain is a hypersensitivity state that results from peripheral and central sensitization. It is increasingly appreciated that chronic itch and chronic cough are also hypersensitivity syndromes.

The conditions of data set [3]: after application of 5% lidocaine plaster to skin; cited from earlier work.
For data set [4], the target named is mu-opioid receptors (Homo sapiens, UniProt P35372). Conditions: relative to morphine; cited from earlier work.
For data set [5] the following is noted: 23 patients, add-on therapy; cited from earlier work.
The conditions of data set [6]: 10 patients with TN; cited from earlier work.
The conditions of data set [7]: PHN; study in Japan; cited from earlier work.
For data set [8] the following is noted: 100-400 mg/d; 8 patients with classic TN; cited from earlier work.
Data set [9] relates to histamine H1-receptor. Conditions: more potent than Z-triprolidine; cited from earlier work.

Sequence of mu-opioid receptors (P35372 whole entry): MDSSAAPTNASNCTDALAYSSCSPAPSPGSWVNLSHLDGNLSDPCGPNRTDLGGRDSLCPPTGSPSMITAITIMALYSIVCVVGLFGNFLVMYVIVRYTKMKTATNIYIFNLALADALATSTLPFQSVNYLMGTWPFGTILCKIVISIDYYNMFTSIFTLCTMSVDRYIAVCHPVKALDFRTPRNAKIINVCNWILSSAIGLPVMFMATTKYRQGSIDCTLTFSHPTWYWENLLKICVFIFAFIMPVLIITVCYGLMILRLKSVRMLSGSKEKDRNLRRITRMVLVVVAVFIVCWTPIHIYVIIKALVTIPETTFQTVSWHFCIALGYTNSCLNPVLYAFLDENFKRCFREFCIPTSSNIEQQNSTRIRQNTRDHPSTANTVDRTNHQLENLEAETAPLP

Regarding `CC(CN(C)C)CN1c2ccccc2Sc2ccccc21` (stereo not drawn) [trimeprazine], the side-effects entry in data set [1] (5 mg tablets, one patient) was “no side-effects other than drowsiness”. In addition, in data set [1] (after four days of medication, 5 mg morning and evening), the pain result is listed as “all pain was gone”. Moreover, the “residual discomfort in face” value in data set [1] (later use, ½ to 1 pill of 5 mg once or twice a day) was “successfully alleviated”. Besides, the “intensity and frequency of the attacks” value in data set [1] (second day of the course, 5 mg morning and evening, one patient) is on record as “in decline”. Further, in data set [2], the “effect on pain of post-herpetic neuralgia and trigeminal neuralgia” value is “observed to treat the pain”.

For the compound `CCN(CC)CC(=O)Nc1c(C)cccc1C` [Lidocaine], the “share of the drug that reaches the systemic circulation” value in data set [3] is reported as 3%.

Take `CC[C@@H](c1cccc(O)c1)[C@@H](C)CN(C)C` [Tapentadol]: the “potency in binding mu-opioid receptors, times less potent than morphine” value in data set [4] is 18 times.

In the case of `CC[C@@H](C(N)=O)N1CCCC1=O` [levetiracetam, Levetiracetam], in data set [5], the “reduction in number of daily attacks” value was 62%. In data set [6], the improvement was 50-90%.

`CC(C)C[C@H](CN)CC(=O)O` [pregabalin, Pregabalin]: in [7], the “analgesic property relative to gabapentin” value is on record as 6 times.

For `CC1(C)O[C@@H]2[C@@H](CO[C@@]3(COS(N)(=O)=O)OC(C)(C)O[C@@H]23)O1` [Topiramate], the “patients in whom the drug was found effective” value in data set [8] is 75%.

For `Cc1ccc(/C(=C\CN2CCCC2)c2ccccn2)cc1` [E-triprolidine], the “potency relative to Z-triprolidine” value in [9] is reported as 1000 fold.
